TGI and GI50 data for 14 compounds are collected here from PubChem BioAssay (NCI).

Molecules are shown by their SMILES. Values joined by “and” are separate entries in the source; they are usually repeats but may differ in a detail not shown here. Identical values can stand only once.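 Tested at 5 concentrations; 48 h exposure; 96-well plates; endpoints linearly interpolated, else capped at highest concentration. GI50 is the concentration that inhibits growth by half. TGI is the concentration that stops growth completely.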

Holding throughout (assay): inhibition of tumour cell growth, NCI panel, 48 h
Assay [1] concerns NCI/ADR-RES ovarian.
The test system of assay [2] is RPMI-8226 leukemia.
Assay [3] deals with MCF7 breast.
For assay [4], the system named is SW-620 colon.
For assay [5], the system named is MALME-3M melanoma.
Assay [6] deals with HS 578T breast.
Assay [7] concerns M14 melanoma.
Assay [8] relates to HOP-92 NSCLC.
Assay [9] has as its system EKVX NSCLC.

Consider `COc1ccccc1NC(=O)C(=O)C(C#N)CC(C)(C)C=O` (configuration not stated), for which the TGI in assay [1], in assay [2], in [3], in assay [4], in assay [5] and in [6] was above 100 µM throughout. Further, the TGI in assay [7], in assay [8] and in [9] was above 100 µM throughout.
With `NCCCCNCCCNC(=O)c1csc(-c2nc(CCN)sc2Cl)n1`, the TGI in assay [1], in [2], in [3], in [4], in assay [5] and in [6] was above 100 µM in each case. For the same compound, the figures for the TGI in assay [7], in [8] and in assay [9] were above 100 µM, 79.5 µM and above 100 µM, respectively.
Consider `COC(=O)/C=C/c1cc(OC)c2c(c1)C(C(=O)OC)C(c1ccc(O)c(OC)c1)O2` (configuration not stated), for which the GI50 in [1] is 3.4 µM and 2.76 µM and 1.68 µM; in [2] it was 2.94 µM and 3.93 µM and 1.69 µM; in assay [3], 1.9 µM and 2.05 µM and 0.69 µM; in assay [4], 2.93 µM and 1.45 µM and 1.46 µM; in assay [6], 5.34 µM; in assay [8], > 37.2 µM and 12.4 µM and 16.9 µM. Moreover, the GI50 in [9] is > 29.4 µM and 18.5 µM and 3.45 µM. The TGI in assay [1] is > 33.9 µM and 26.6 µM and 12.9 µM; in [2] it was 13.6 µM and > 60.8 µM and 15.6 µM; in assay [3], > 100 µM and > 69.5 µM and 42.9 µM; in assay [4], above 100 µM; in [5], > 100 µM and 37.4 µM; in assay [6] it was above 88.1 µM. Further, the TGI in [7] is above 100 µM; in assay [8], above 100 µM; in assay [9], > 100 µM and 57.6 µM.
As to `O=CC1C(=O)Nc2nc3ccccc3n2C1c1ccccc1` (configuration not stated), the TGI is above 100 µM in [1]; 70.4 µM in [2]; 27.4 µM in assay [3]; 43.3 µM in assay [4]; 53.7 µM in [5]; above 100 µM in assay [6]. Besides, the TGI in assay [7] was found to be 34 µM; in [8], 31.3 µM; in assay [9] it was 82 µM.
With `COc1ccc(-c2cc(-c3ccncc3)nc(N)c2-c2ccc(F)cc2)cc1`, the TGI in [1], in assay [2], in assay [3], in assay [4], in assay [5] and in [6] was above 100 µM throughout. Also, the TGI in assay [7], in assay [8] and in assay [9] was above 100 µM in each case.
With `COc1ccc(/C=C2\NC(=S)N(CN3CCOCC3)C2=O)cc1`, the TGI in assay [1], in assay [2], in assay [3], in [4], in assay [5] and in assay [6] was above 100 µM in each case. The TGI in [7], in [8] and in assay [9] was above 100 µM in each case.
For the compound `[B]C(=O)NC(CC(C)C)C(=O)NC1c2ccsc2C(=O)C1O` (configuration not stated) (tested in a mixture with another compound), the TGI in [1], in assay [2], in [3], in assay [4], in assay [5] and in assay [6] was above 100 µM in each case. Moreover, the TGI in assay [7], in assay [8] and in assay [9] was above 100 µM throughout. For the same compound, the GI50 in assay [8] was 44.6 µM and > 100 µM.
Consider `CC(=O)Nc1ccc2cc3c(nc2n1)c1cccnc1n3S(=O)(=O)c1ccccc1`, for which the TGI in assay [1], in [2], in [3], in assay [4], in assay [5] and in assay [6] was above 100 µM in each case. Moreover, the TGI in [7], in assay [8] and in [9] was above 100 µM throughout.
As for `COC(=O)CCC(=O)c1ccc2c(c1)CC1(Cc3ccccc3C1)C2`, the TGI in [1], in [2], in assay [3], in assay [5], in assay [6] and in [7] was above 100 µM in each case. For the same compound, the TGI in assay [8] and in assay [9] was above 100 µM each time.
Turning to `c1ccc2c[n+](Cc3ccnc4ccccc34)ccc2c1`, the TGI in [1], in assay [2], in [3], in assay [4], in assay [5] and in assay [6] was above 100 µM each time. Further, the TGI in [7], in assay [8] and in assay [9] was above 100 µM each time.
On to `O=C(O)COc1cccc2ccccc(=O)c12`, for which the TGI in assay [1], in assay [3], in assay [4], in [5], in assay [6] and in assay [7] was above 100 µM each time. The TGI in [8] and in [9] was above 100 µM each time.
For `CC(=O)Oc1ccc(C2SCc3nc4ccccc4n32)cc1` (configuration not stated), the TGI in [1] is 51.6 µM; in assay [2], above 100 µM; in assay [3], above 100 µM; in assay [4] it was above 100 µM; in assay [5], above 100 µM; in [6], above 100 µM. For the same compound, the TGI in assay [7], in assay [8] and in [9] was above 100 µM throughout.
On to `Nc1nc(=O)n(C2CC(O)C(CO)O2)c2nc(-c3ccc(-c4ccccc4)cc3)cnc12` (configuration not stated), for which the TGI in [1] is above 100 µM; in [2], above 100 µM; in assay [3], 54.1 µM; in assay [4], above 100 µM; in assay [5], above 100 µM; in assay [6], 93.9 µM. In addition, the TGI in assay [7], in [8] and in assay [9] was above 100 µM throughout.
On to `C[C@H](OC(=O)/C=C/c1ccc(O)c(O)c1)[C@H](C)OC(=O)/C=C/c1ccc(O)c(O)c1`, for which the TGI in assay [1] was 63.1 µM; in [2], above 100 µM; in assay [3], 70.7 µM; in [4], 17.8 µM; in assay [5], 31.9 µM; in [6], above 100 µM. The TGI in [7] was determined as 23.5 µM; in assay [8] it was 38.2 µM; in assay [9], 33 µM.
